The target of series [1] is Integrin alpha-IIb/beta-3 (Homo sapiens, UniProt P05106+P08514).
Description: Displacement of [3H]UR-3189 from integrin alpha2b beta3 receptor in resting human platelet
Series [2] can be described thus: Stability of the compound in human microsomes. The class given is ADME, Microsome. Conditions: read-out: Stability.

Chain of Integrin alpha-IIb/beta-3 (P05106 27-788 limits assumed): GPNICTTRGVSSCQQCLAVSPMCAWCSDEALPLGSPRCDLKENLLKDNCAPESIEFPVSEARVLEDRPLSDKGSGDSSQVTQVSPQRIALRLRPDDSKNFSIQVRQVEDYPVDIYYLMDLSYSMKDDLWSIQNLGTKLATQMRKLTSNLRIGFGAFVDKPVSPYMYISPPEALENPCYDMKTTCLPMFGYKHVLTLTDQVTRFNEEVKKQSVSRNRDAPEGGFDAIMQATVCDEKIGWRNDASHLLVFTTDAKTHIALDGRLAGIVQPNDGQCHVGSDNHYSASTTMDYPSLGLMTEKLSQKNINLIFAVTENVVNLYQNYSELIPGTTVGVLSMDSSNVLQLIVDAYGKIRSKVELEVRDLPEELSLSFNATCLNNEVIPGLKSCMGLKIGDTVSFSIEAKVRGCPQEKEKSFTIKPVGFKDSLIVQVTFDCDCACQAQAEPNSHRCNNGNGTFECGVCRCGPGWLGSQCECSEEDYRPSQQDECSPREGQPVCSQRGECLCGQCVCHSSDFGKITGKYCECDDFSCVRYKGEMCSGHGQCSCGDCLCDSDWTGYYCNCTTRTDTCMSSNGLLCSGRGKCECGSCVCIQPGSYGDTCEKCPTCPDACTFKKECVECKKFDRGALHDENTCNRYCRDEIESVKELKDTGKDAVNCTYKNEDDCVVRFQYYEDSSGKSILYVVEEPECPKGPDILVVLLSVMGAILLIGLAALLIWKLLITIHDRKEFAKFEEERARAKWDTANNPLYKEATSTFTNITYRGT
Chain of Integrin alpha-IIb/beta-3 (P08514 32-887 limits assumed): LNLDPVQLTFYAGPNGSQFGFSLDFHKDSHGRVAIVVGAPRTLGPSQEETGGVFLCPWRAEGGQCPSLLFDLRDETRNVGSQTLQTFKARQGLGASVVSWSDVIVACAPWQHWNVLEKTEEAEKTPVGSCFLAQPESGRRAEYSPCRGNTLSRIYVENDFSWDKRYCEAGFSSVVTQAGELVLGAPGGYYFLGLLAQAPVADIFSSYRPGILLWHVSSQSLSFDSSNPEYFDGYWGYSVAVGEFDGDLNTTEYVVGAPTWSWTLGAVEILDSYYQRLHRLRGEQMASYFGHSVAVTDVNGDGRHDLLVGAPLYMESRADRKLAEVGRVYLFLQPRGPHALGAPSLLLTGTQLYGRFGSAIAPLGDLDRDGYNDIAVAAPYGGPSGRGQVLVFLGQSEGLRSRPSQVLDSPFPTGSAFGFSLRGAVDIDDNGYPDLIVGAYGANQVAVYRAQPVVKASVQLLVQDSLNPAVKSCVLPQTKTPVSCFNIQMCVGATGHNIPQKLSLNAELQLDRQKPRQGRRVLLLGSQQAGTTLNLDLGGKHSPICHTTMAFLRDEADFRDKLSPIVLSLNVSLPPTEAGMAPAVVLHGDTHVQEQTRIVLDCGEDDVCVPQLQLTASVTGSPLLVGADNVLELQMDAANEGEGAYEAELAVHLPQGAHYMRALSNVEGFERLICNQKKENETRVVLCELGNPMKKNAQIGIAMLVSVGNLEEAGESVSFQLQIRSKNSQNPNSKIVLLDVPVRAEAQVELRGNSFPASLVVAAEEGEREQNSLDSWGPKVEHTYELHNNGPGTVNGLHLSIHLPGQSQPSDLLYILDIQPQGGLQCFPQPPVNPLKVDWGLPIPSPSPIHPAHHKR
Chain of Integrin alpha-IIb/beta-3 (P08514 891-1039 limits assumed): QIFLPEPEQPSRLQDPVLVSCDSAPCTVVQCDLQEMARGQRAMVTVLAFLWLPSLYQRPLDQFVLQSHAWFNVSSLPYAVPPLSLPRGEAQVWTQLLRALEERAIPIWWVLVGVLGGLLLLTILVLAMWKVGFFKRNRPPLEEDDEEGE

For `[H]/N=C(\N)c1ccc(C(=O)N[C@@H](Cc2ccc([N+](=O)[O-])cc2)C(=O)N2CCc3nn(CC(=O)O)cc3C2)cc1`, the Ki (in general, a dissociation constant, usually derived from enzyme kinetics or from competition with a known ligand) in series [1] was under 1 nM.
As for `NCC(=O)Nc1cncc(-c2nn3c(=O)cc(N4CCNCC4)nc3s2)c1` [ZALUNFIBAN], the microsomal CLint in series [2] turned out to be 23.2 µL/min/mg.

The values above are taken from ChEMBL document CHEMBL4049383, “Emergence of Small-Molecule Non-RGD-Mimetic Inhibitors for RGD Integrins” (J Med Chem, 2017).
